The supplement of paper PMC11061612

Columns and labels:
Assay in all cases: combination Emax (second highest fraction inhibited in the dose matrix, 72 h); higher = more inhibition; extreme values may be limits of the assay
CAL-78 (Chondrosarcoma) = system: CAL-78 (Chondrosarcoma)
How it was run: (§1)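 After 24 hours at 37°C and 5% CO2 in 1536-well plates, cells in DMEM/F12 or RPMI plus 10% FBS received two-drug dose matrices for 72 hours. Viability came from CellTiter-Glo 2.0 luminescence and was scaled as inhibition, anchored at 0 by vehicle wells and at 1 by blank wells. Combination Emax is taken as the second-highest inhibition in the matrix, and Bliss excess as the observed combination effect less EA + EB − EA·EB, with EA and EB the single-agent effects.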

[1] = system: CFPAC-1 (Pancreatic Carcinoma)
How it was run: as §1

[2] = system: COR-L23 (Non-Small Cell Lung Carcinoma)
How it was run: as §1

[3] = system: COR-L95 (Small Cell Lung Carcinoma)
How it was run: as §1

ES7 (Ewing's Sarcoma) = system: ES7 (Ewing's Sarcoma)
How it was run: as §1

[4] = system: G-292-Clone-A141B1 (Osteosarcoma)
How it was run: as §1

[5] = system: HCC2157 (Breast Carcinoma)
How it was run: as §1

[6] = system: HPAC (Pancreatic Carcinoma)
How it was run: as §1

[7] = system: HT-29 (Colorectal Carcinoma)
How it was run: as §1

J82 (Bladder Carcinoma) = system: J82 (Bladder Carcinoma)
How it was run: as §1

[8] = system: KARPAS-620 (Plasma Cell Myeloma)
How it was run: as §1

[9] = system: LU-99A (Non-Small Cell Lung Carcinoma)
How it was run: as §1

[10] = system: MDA-MB-231 (Breast Carcinoma)
How it was run: as §1

[11] = system: NALM-6 (B-Lymphoblastic Leukemia)
How it was run: as §1

[12] = system: SNU-C5 (Colorectal Carcinoma)
How it was run: as §1

[13] = system: SUIT-2 (Pancreatic Carcinoma)
How it was run: as §1

[14] = system: SW1088 (Low Grade Glioma)
How it was run: as §1

[15] = system: SW1783 (Low Grade Glioma)
How it was run: as §1

[16] = system: TE-5 (Esophageal Squamous Cell Carcinoma)
How it was run: as §1

[17] = system: TGBC24TKB (Biliary Tract Carcinoma)
How it was run: as §1

Structure (SMILES) | combination Emax (CAL-78 (Chondrosarcoma)) | combination Emax [1] | combination Emax [2] | combination Emax [3] | combination Emax (ES7 (Ewing's Sarcoma)) | combination Emax [4] | combination Emax [5] | combination Emax [6] | combination Emax [7] | combination Emax (J82 (Bladder Carcinoma)) | combination Emax [8] | combination Emax [9] | combination Emax [10] | combination Emax [11] | combination Emax [12] | combination Emax [13] | combination Emax [14] | combination Emax [15] | combination Emax [16] | combination Emax [17]
COc1nnc2ccc(N3CCC(c4ccc(OCCN5CCN(C)C(=O)[C@H]5C)cc4)CC3)nn12 [AZD5153] + CCN(CCO)CCCOc1ccc2c(Nc3cc(CC(=O)Nc4cccc(F)c4)[nH]n3)ncnc2c1 [AZD2811] (first compound max 1 µM, 7x7, partner max 1 µM) | 0.486 | 0.394 | 0.354 | 0.308 | 0.884 | 0.366 | 1 | 0.649 | 0.72 | 0.355 | 0.75 | 0.505 | 0.65 | 0.938 | 0.517 | 0.436 | 0.519 | 0.328 | 0.434 | 0.765
COc1nnc2ccc(N3CCC(c4ccc(OCCN5CCN(C)C(=O)[C@H]5C)cc4)CC3)nn12 [AZD5153] + C=CCn1c(=O)c2cnc(Nc3ccc(N4CCN(C)CC4)cc3)nc2n1-c1cccc(C(C)(C)O)n1 [AZD1775] (first compound max 1 µM, partner max 1 µM) | 0.551 | 0.506 | 0.68 | 0.433 | 0.795 | 0.402 | 1 | 0.735 | 0.868 | 0.486 | 0.764 | 0.595 | 0.612 | 0.951 | 0.682 | 0.693 | 0.513 | 0.41 | 0.383 | 0.826
C[C@@H](c1ccc2nccn2c1)n1nnc2ncc(-c3cnn(C)c3)nc21 [Savolitinib] + Cc1c2c(nn1C)CSCc1cc(n(C)n1)CSc1cc(c3ccccc3c1)OCCCc1c(C(=O)O)n(C)c3c-2c(Cl)ccc13 [AZD5991] (first compound max 1 µM, 7x7, partner max 1 µM) | 0.697 | 0.115 | 0.142 | 0.163 | 0.554 | 0.138 | 0.978 | 0.168 | 0.142 | 0.205 | 0.997 | 0.134 | 0.284 | 0.226 | 0.177 | 0.208 | 0.261 | 0.22 | 0.147 | 0.182
CN(CCO)CC[C@H](CSc1ccccc1)Nc1ccc(S(=O)(=O)NC(=O)c2ccc(N3CCC([C@@H](O)c4ccccc4-c4ccc(Cl)cc4)CC3)cc2)cc1S(=O)(=O)C(F)(F)F [AZD4320] + Cn1cnc2c(F)c(Nc3ccc(Br)cc3Cl)c(C(=O)NOCCO)cc21 [Selumetinib] (first compound max 1 µM, 7x7, partner max 3 µM) | 0.557 | 0.472 | 0.442 | 1 | 0.984 | 0.564 | 0.923 | 0.865 | 0.695 | 0.245 | 1 | 0.87 | 0.832 | 0.982 | 0.656 | 0.406 | 0.289 | 0.706 | 0.597 | 0.791
COc1cccc(OCCCN)c1-c1cc(Nc2cnc(C#N)cn2)n[nH]1 [Prexasertib] + C=CCn1c(=O)c2cnc(Nc3ccc(N4CCN(C)CC4)cc3)nc2n1-c1cccc(C(C)(C)O)n1 [AZD1775] (first compound max 1 µM, partner max 1 µM) | 0.643 | 0.692 | 0.652 | 0.736 | 0.966 | 0.32 | 1 | 0.792 | 0.844 | 0.577 | 0.904 | 0.806 | 0.9 | 0.934 | 0.886 | 0.707 | 0.848 | 0.549 | 0.625 | 0.896
CC1(C)CCC(CN2CCN(c3ccc(C(=O)NS(=O)(=O)c4ccc(NCC5CCOCC5)c([N+](=O)[O-])c4)c(Oc4cnc5[nH]ccc5c4)c3)CC2)=C(c2ccc(Cl)cc2)C1 [Venetoclax] + C=CCn1c(=O)c2cnc(Nc3ccc(N4CCN(C)CC4)cc3)nc2n1-c1cccc(C(C)(C)O)n1 [AZD1775] (first compound max 1 µM, partner max 1 µM) | 0.51 | 0.495 | 0.602 | 0.862 | 0.888 | 0.263 | 0.782 | 0.757 | 0.89 | 0.177 | 0.976 | 0.463 | 0.481 | 1 | 0.57 | 0.596 | 0.648 | 0.307 | 0.451 | 0.52
CN(CCO)CC[C@H](CSc1ccccc1)Nc1ccc(S(=O)(=O)NC(=O)c2ccc(N3CCC([C@@H](O)c4ccccc4-c4ccc(Cl)cc4)CC3)cc2)cc1S(=O)(=O)C(F)(F)F [AZD4320] + CCN(CCO)CCCOc1ccc2c(Nc3cc(CC(=O)Nc4cccc(F)c4)[nH]n3)ncnc2c1 [AZD2811] (first compound max 1 µM, 7x7, partner max 1 µM) | 0.703 | 0.115 | 0.15 | 1 | 1 | 0.578 | 0.979 | 0.844 | 0.232 | 0.126 | 1 | 0.701 | 0.813 | 0.98 | 0.196 | 0.089 | 0.306 | 0.412 | 0.478 | 0.822
CCN(CCO)CCCOc1ccc2c(Nc3cc(CC(=O)Nc4cccc(F)c4)[nH]n3)ncnc2c1 [AZD2811] + C[C@@H]1COCCN1C2=NC(=NC(=C2)C3(CC3)[S@](=N)(=O)C)C4=C5C=CNC5=NC=C4 [AZD6738] (first compound max 1 µM, 7x7, partner max 10 µM) | 0.534 | 0.399 | 0.511 | 0.533 | 0.865 | 0.263 | 0.918 | 0.583 | 0.829 | 0.184 | 0.59 | 0.659 | 0.667 | 0.957 | 0.755 | 0.575 | 0.566 | 0.321 | 0.476 | 0.746
CC(=O)c1c(C)c2cnc(Nc3ccc(N4CCNCC4)cn3)nc2n(C2CCCC2)c1=O [Palbociclib] + Cc1c2c(nn1C)CSCc1cc(n(C)n1)CSc1cc(c3ccccc3c1)OCCCc1c(C(=O)O)n(C)c3c-2c(Cl)ccc13 [AZD5991] (first compound max 10 µM, 7x7, partner max 1 µM) | 0.693 | 0.375 | 0.203 | 0.196 | 0.714 | 0.161 | 1 | 0.329 | 0.449 | 0.25 | 1 | 0.346 | 0.455 | 0.846 | 0.35 | 0.445 | 0.364 | 0.159 | 0.157 | 0.585
COc1cc2c(cc1OCCCCCOc1cc3c(cc1OC)C(=O)N1C=C(C)C[C@H]1C=N3)N=C[C@@H]1CC(C)=CN1C2=O [SG3199] + O=C(c1cc(Cc2n[nH]c(=O)c3ccccc23)ccc1F)N1CCN(C(=O)C2CC2)CC1 [Olaparib] (first compound max 0.001 µM, 7x7, partner max 10 µM) | 0.268 | 0.175 | 0.221 | 0.431 | 0.832 | 0.145 | 0.264 | 0.0597 | 0.0781 | 0.187 | 0.139 | 0.356 | 0.178 | 0.459 | 0.147 | 0.187 | 0.151 | 0.0897 | 0.0521 | 0.126
Cn1cnc2c(F)c(Nc3ccc(Br)cc3Cl)c(C(=O)NOCCO)cc21 [Selumetinib] + C=CCn1c(=O)c2cnc(Nc3ccc(N4CCN(C)CC4)cc3)nc2n1-c1cccc(C(C)(C)O)n1 [AZD1775] (first compound max 10 µM, partner max 1 µM) | 0.544 | 0.453 | 0.722 | 0.32 | 0.486 | 0.102 | 0.729 | 0.877 | 0.889 | 0.299 | 0.849 | 0.62 | 0.577 | 0.98 | 0.722 | 0.588 | 0.55 | 0.392 | 0.292 | 0.637
CC1(C)CCC(CN2CCN(c3ccc(C(=O)NS(=O)(=O)c4ccc(NCC5CCOCC5)c([N+](=O)[O-])c4)c(Oc4cnc5[nH]ccc5c4)c3)CC2)=C(c2ccc(Cl)cc2)C1 [Venetoclax] + CN(C)CCCOc1ccc(-c2ccc3ncc4c(c3c2)n(C2CCOCC2)c(=O)n4C)cn1 [AZD0156] (first compound max 1 µM, 7x7, partner max 1 µM) | 0.248 | 0.342 | 0.147 | 0.535 | 0.925 | 0.273 | 0.377 | 0.26 | 0.233 | 0.186 | 0.989 | 0.16 | 0.267 | 0.89 | 0.185 | 0.207 | 0.238 | 0.24 | 0.271 | 0.268
